# Data as given in patent publication US11911382B2, “Method for treating pulmonary arterial hypertension and associated pulmonary arterial hypertension” (Altavant Sciences GmbH, priority 2018, dated 2024).
# Assays:
# TPH1 = molecular target: T1, TPH1 (Mus musculus, UniProt P17532); conditions: amorphous form; cited from earlier work
# T1 construct: from tissue; host or cells: live mice (in vivo)
# T1 sequence (P17532 1-447): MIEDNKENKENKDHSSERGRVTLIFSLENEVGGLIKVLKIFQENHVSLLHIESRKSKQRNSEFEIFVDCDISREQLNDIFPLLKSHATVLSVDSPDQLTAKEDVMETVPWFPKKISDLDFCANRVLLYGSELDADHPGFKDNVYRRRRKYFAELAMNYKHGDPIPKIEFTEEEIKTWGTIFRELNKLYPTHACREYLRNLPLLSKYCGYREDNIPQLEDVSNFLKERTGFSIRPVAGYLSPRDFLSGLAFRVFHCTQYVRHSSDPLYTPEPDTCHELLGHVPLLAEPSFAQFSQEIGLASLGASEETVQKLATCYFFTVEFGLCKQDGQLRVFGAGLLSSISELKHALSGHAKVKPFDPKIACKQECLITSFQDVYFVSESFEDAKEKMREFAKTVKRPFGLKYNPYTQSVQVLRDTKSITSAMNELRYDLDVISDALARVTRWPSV
# serotonin biomarkers = assay: divided dose studies in rats; format: in vivo, rat
# serotonin biosynthesis = assay: serotonin biomarkers in rat (serum serotonin, urinary 5-HIAA); format: in vivo; conditions: 30 to 300 mg/kg/day, dose-dependent
# Experimental: RVT-1201 (30 to 300 mg/kg/day) may yield a dose-dependent reduction in rat serum serotonin (−27% to −96%) and 24 h urinary output of 5-HIAA (−45% to −56%). HIAA is a metabolite that reflects total serotonin biosynthesis.
# [1] = pharmacokinetics in healthy human subjects; format: in vivo; conditions: humans, interpolation of KAR5417 AUC between 400 mg and 800 mg BID regimens
# Experimental: (§1) Healthy human subjects (n=˜120) may receive RVT-1201.
# (§2) Mean change in plasma 5-HIAA may be about −53% from Day 1 to Day 14, whereas placebo may be about +26%. Interpolation of KAR5417 AUC between 400 mg and 800 mg BID regimens may show 500-600 mg BID in humans will achieve the target exposure associated with efficacy in rat models.
# [2] = test system: PAH, monocrotaline prevention model; assay: monocrotaline prevention model of PAH; format: in vivo; conditions: rat, oral RVT-1201 100 mg/kg/day
# [3] = test system: established PAH, SUGEN-hypoxia treatment model; assay: SUGEN-hypoxia treatment model for established PAH; format: in vivo; conditions: rat, oral RVT-1201 100 mg/kg/day
# [4] = safety and tolerability in healthy human subjects; format: in vivo; conditions: doses required to achieve clinically-relevant AUC
# Experimental: as §1, §2
# 5-HIAA = assay: plasma 5-HIAA in healthy human subjects; format: in vivo; conditions: 400 mg BID, Day 1 to Day 14
# Experimental: as §2
# [5] = stability of crystalline polymorphs; format: physicochemical; conditions: particularly at temperatures of less than 95° C.
# Source text: The above-referenced compound can be used to prevent or treat PAH/APAH in either an amorphous or crystalline form. Two different polymorph crystalline forms are identified by x-ray powder diffraction patterns set forth in FIG. 1 (Form 3) and FIG. 2 (Form 1) as well as Tables 1 and 2 (Form 3) and Tables 3 and 4 (Form 1).
structure (smiles),measurement,setting,value
"CCOC(=O)[C@@H]1CC2(CCN(c3cc(O[C@H](c4ccc(Cl)cc4-c4ccccc4)C(F)(F)F)nc(N)n3)CC2)CN1 [RVT-1201, (S)-ethyl 8-(2-amino-6-((R)-1-(5-chloro-[1,1′-biphenyl]-2-yl)-2,2,2-trifluoroethoxy)pyrimidin-4-yl)-2,8-diazaspiro[4.5]decane-3-carboxylate]",efficacy in inhibiting TPH1 in mice,TPH1,demonstrated
same,once daily administration versus BID or TID regimens,serotonin biomarkers,comparable to BID or TID regimens
same,serotonin reduction,"serotonin biomarkers; 75 mg/kg/day, divided dose studies",~65%
same,reduction in 24 h urinary output of 5-HIAA,serotonin biosynthesis,−45% to −56%
same,reduction in rat serum serotonin,serotonin biosynthesis,−27% to −96%
same,BID dose achieving target exposure associated with efficacy in rat models,[1],500 to 600 mg
same,effect on PAH,[2],block or ameliorate PAH
same,effect on PAH,[3],block or ameliorate PAH
same,tolerability,[4],well tolerated
same,mean change in plasma 5-HIAA,5-HIAA,about −53%
"CCOC(=O)[C@@H]1CC2(CCN(c3cc(O[C@H](c4ccc(Cl)cc4-c4ccccc4)C(F)(F)F)nc(N)n3)CC2)CN1 [crystalline Form 3, (S)-ethyl 8-(2-amino-6-((R)-1-(5-chloro-[1,1′-biphenyl]-2-yl)-2,2,2-trifluoroethoxy)pyrimidin-4-yl)-2,8-diazaspiro[4.5]decane-3-carboxylate]",stability and shelf life compared to crystalline Form 1 polymorph,[5],substantially greater stability and shelf life
